Experimental data as given in the NIST ThermoML archive (doi:10.1016/j.jct.2011.12.001).
Several values for one entry are separate records, joined by “and”; a condition that tells them apart may be missing. Equal values may be shown once. ± gives the expanded uncertainty stated by the source.

How the values were obtained:
[1] = molar enthalpy of transition or fusion; details: drop calorimetry
[2] = molar enthalpy of vaporization or sublimation; details: 298.15 K; Liquid; drop calorimetry
[3] = Crystal, Calculated from knudsen effusion weight loss

| molar enthalpy of transition or fusion ([1]; 324.2 K, Liquid) [kcal/mol] | molar enthalpy [2] [kcal/mol] | molar enthalpy of transition or fusion ([1]; 349.4 K, Crystal) [kcal/mol] | SMILES | vapor or sublimation pressure ([3]; 271.17 K) | vapor or sublimation pressure ([3]; 273.17 K) | vapor or sublimation pressure ([3]; 275.13 K) | vapor or sublimation pressure ([3]; 277.16 K) | vapor or sublimation pressure ([3]; 279.06 K) | vapor or sublimation pressure ([3]; 281.16 K) | vapor or sublimation pressure ([3]; 283.17 K) | vapor or sublimation pressure ([3]; 285.14 K) | vapor or sublimation pressure ([3]; 287.14 K) |
| --- | --- | --- | --- | --- | --- | --- | --- | --- | --- | --- | --- | --- |
| 16.52 ± 0.0956 | 15.6 ± 0.669 |  | COc1ccccc1I [1-iodo-2-methoxybenzene] |  |  |  |  |  |  |  |  |  |
|  | 19.7 ± 0.717 | 21.61 ± 0.143 | COc1ccc(I)cc1 [1-iodo-4-methoxybenzene] | 0.000123 ± 2e-05 kPa and 0.00012 ± 2e-05 kPa and 0.000116 ± 2e-05 kPa | 0.000161 ± 2.1e-05 kPa and 0.000156 ± 2.1e-05 kPa and 0.000153 ± 2.1e-05 kPa | 0.000213 ± 2.1e-05 kPa and 0.000211 ± 2.1e-05 kPa and 0.000196 ± 2.1e-05 kPa | 0.000267 ± 2.2e-05 kPa and 0.000258 ± 2.2e-05 kPa and 0.000279 ± 2.2e-05 kPa | 0.00035 ± 2e-05 kPa and 0.000334 ± 2.3e-05 kPa and 0.000332 ± 2.3e-05 kPa | 0.000463 ± 2.6e-05 kPa and 0.000446 ± 2.6e-05 kPa and 0.000429 ± 2.5e-05 kPa | 0.000606 ± 2.9e-05 kPa and 0.000571 ± 2.8e-05 kPa and 0.000555 ± 2.8e-05 kPa | 0.000749 ± 3.3e-05 kPa and 0.000718 ± 3.2e-05 kPa | 0.000979 ± 4e-05 kPa and 0.000924 ± 3.8e-05 kPa and 0.000923 ± 3.8e-05 kPa |
| 15.85 ± 0.0478 | 14.9 ± 0.621 |  | COc1cccc(I)c1 [3-iodoanisole] |  |  |  |  |  |  |  |  |  |
